pEC50: −log10 of the molar value. Where two headings read alike, the source gives them in different places. Starred links: 1 amine or outer side, 2 acyl side, 3 side chain; linkers in the order of their positions; H or OH if unused. Non-standard residues stand in square brackets, D forms with d. Residues, ends and D or L forms follow the SMILES beside them. X1 = O=C([C@H](Cc1ccc(NP(=O)(O)O)cc1)N[*:1])[*:2]
Legend:
[1] = biological target: T1, pAcFRS.1.t1 synthetase (Methanocaldococcus jannaschii, UniProt Q57834, A167D/D158G/D286R/I159C/L162R/R257G/Y32L); test: In vitro tRNA charging assay; type: biochemical; conditions: purified pAcFRS.1.t1, 1 mM amino acid
T1 construct: His; made in house
Description: The pAcFRS.1.t1 synthetase was His-purified, and stored in 50 mM KCl, 50 mM HEPES-KOH at pH 7.5, 10% glycerol. The cognate tRNA was in vitro transcribed (IVT) from dsDNA template containing a T7 promoter, hammerhead ribozyme and tRNA, as described previously(Fechter et al., 1998). The IVT buffer consists of 40 mM Tris-HCl at pH8.0, 0.01% Triton X, 30 mM MgCl2, 2 mM Spermidine, 1 mM DTT. For a 100 μL reaction, 4 mM riboNTPs (N0466S, NEB), 100U T7 (M0251S, NEB) and 1-2 μM dsDNA template were added. The reaction was incubated at 37° C. for 3 h. Afterwards, the sample was diluted 5× with reaction buffer, and heated to 65C for 1 h to promote hammerhead cleavage. After a phenol:chloroform extraction, the cleaved tRNA was separated from other fragments using a TBE-Urea gel. Finally, the tRNA was refolded by slowly cooling the sample from 95° C. to r.t. At 65° C., MgCl2 was added to a final concentration of 10 mM.
aaRS specificity was measured using in vitro charging. The reaction composition was 150 mM HEPES-KOH at pH 7.5, 10 mM MgCl2, 2.5 mM DTT, 0.2 mg/mL BSA, 2 mM ATP, 1 mM amino acid, 500 nM aaRS and 750 nM tRNA. The reactions were incubated at 37° C. for 30 min. Afterwards, they were quenched using loading buffer (0.1 M sodium acetate pH 5.0, 8 M urea, 0.05% bromophenol blue, 0.05% xylene cyanol FF). The samples were then analyzed on an acid-urea PAGE gel (8 M urea, 0.1 M sodium acetate at pH 5.2) (Varshney et al., 1991), that was prerun in running buffer (0.1 M NaOAc at pH 5.2) for 20 min at 13 W. After sample loading, the gel was run at a constant 13 W for 20 h. The tRNA was visualized with ethidium bromide staining.

[2] = Reduction of pAzF to pAF under purification pH and temperatures (HRMS); type: physicochemical; conditions: pH 6.6, 7.2, 7.9; 4, 20, 34 or 80° C.
From the text: High-resolution mass spectrometry (HRMS) data was collected using an Agilent iFunnel 6550 Quadrupole Time-Of-Flight (QTOF) MS with an electrospray ionization (ESI) source, coupled to an Agilent Infinity 1290 ultra-high-performance liquid chromatography (UHPLC) system with an Agilent Eclipse Plus C18 1.8 μm, 4.6×50 mm column. Solvents used were (solvent A) water 0.1% formic acid and (solvent B) CH3CN 0.1% formic acid. Mass spectra were gathered using Dual Agilent Jet Stream (AJS) ESI in positive mode. The mass range was set from 110 to 1700 m/z with a scan speed of 3 scan/second. The capillary and nozzle voltages were set to 5500 and 2000 V, respectively. […] MS data were acquired with MassHunter Workstation Data Acquistion (Version B.06.01, Agilent Technologies) and analyzed using MassHunter Qualitative Analysis (Version B.07.00, Agilent Technologies). Protein quantification was performed using peptide standards with the same sequence as the digested peptides, or based on calibration curves produced using dilutions series of peptide(1TAG)-GFP.
Experiments were designed to assess if reduction of pAzF residues occurs during protein purification or MS analysis. Experiments evaluated if pAzF is reduced over a range of pH (6.6, 7.2, 7.9) and temperatures (4, 20, 34, or 80° C.) used during sample purification, and found minimal (<1%) reduction to pAF under all conditions. […]

[3] = biological target: Src SH2 domain (Homo sapiens, UniProt P12931); test: Fluorescence polarization assay, direct binding and competition with FITC-pTyrEEI
Description: They were then induced with 1 mM IPTG and grown overnight. Cells were pelleted prior to freezing at −80° C. Pellets were resuspended in lysis buffer (50 mM Tris, pH 8.0, 500 mM NaCl, 0.5 mM EDTA, 0.5 mM EGTA, 10% glycerol) and then sonicated. Clarified lysate was incubated with Glutathione Sepharose 4B resin, washed (50 mM Tris, pH 8.0, 50 mM NaCl, 10% glycerol) and eluted from resin in elution buffer (20 mM reduced glutathione, 50 mM Tris, pH 8.0, 50 mM NaCl, 10% glycerol, pH 8.0). […] Protein was stored at −80° C. […] Kd was established using one-site binding model in GraphPad Prism version 7 for Mac (GraphPad Software, La Jolla, CA, USA). Unlabeled peptides were diluted to 100 μM in assay buffer. […] A full-dissociation control was established with 10 nM peptide in assay buffer. […] EC50 for percent inhibition was estimated by plotting log10[agonist] vs. response and fitting a four-parameter variable slope fit in GraphPad Prism.

T1 sequence (Q57834 whole entry Y32L/D158G/I159C/L162R/A167D/R257G/D286R): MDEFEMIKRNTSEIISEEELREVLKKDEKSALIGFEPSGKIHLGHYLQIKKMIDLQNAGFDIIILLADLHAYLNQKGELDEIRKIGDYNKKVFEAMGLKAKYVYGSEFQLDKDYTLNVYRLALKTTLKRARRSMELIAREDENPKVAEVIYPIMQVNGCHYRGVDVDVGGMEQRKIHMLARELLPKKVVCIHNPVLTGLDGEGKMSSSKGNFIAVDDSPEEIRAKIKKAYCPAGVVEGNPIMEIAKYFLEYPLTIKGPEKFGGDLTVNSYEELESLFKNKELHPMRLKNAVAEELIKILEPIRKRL

## Nc1ccc(C[C@H](N)C(=O)O)cc1 [pAF, para-amino-phenylalanine]
[1]
  charging onto the cognate tRNA: no charging

## [N-]=[N+]=Nc1ccc(C[C@H](N)C(=O)O)cc1 [pAzF, para-azido-phenylalanine]
[1]
  charging onto the cognate tRNA: charged
[2]
  reduction to pAF: < 1%

## CC[C@H](C)[C@H](NC(=O)[C@@H]1CCCN1C(=O)[C@@H](NC(=O)[C@H](CCC(=O)O)NC(=O)[C@H](CCC(=O)O)NC(=O)[C@H](Cc1ccc(NP(=O)(O)O)cc1)NC(=O)[C@H](CCC(N)=O)NC(=O)[C@@H]1CCCN1C(=O)[C@@H](N)CCC(=O)O)[C@@H](C)CC)C(=O)N[C@@H](Cc1ccc(O)cc1)C(=O)N[C@@H](CC(C)C)C(=O)O [pnY peptide] (H-EPQ[X1]EEIPIYL-OH; N-terminus and C-terminus assumed)
[3]
  pEC50: 4.89
[3]; pnY peptide EC50 compared with […], Src SH2
  Decrease in binding affinity with SH2: 17 fold

## N[C@@H](Cc1ccc(O)cc1)C(=O)O [tyrosine]
[1]
  charging onto the cognate tRNA: no charging

## EPQYEEIPIYL [Tyr peptide, reference compound]
[3]; competition with FITC-labeled pTyr peptide
  EC50: No increase in unbound FITC-pTyr peptide

Source: patent US20250270289A1, “SEQUENCE-DEFINED POLYMERS WITH ONE OR MORE AZIDES, METHODS OF MAKING, AND METHODS OF USE THEREOF” (Yale University, priority 2021, published 2025)
